Calls of active or inactive are those of the source.
Assays:
Type in all cases: functional, organism-based
Candida albicans = test: Antifungal activity against Candida albicans
Enterococcus faecalis = test: Antibacterial activity against Streptococcus faecalis
Klebsiella pneumoniae = test: Antibacterial activity against Klebsiella pneumoniae
Escherichia coli = test: Antibacterial activity against Escherichia coli
Pseudomonas aeruginosa = test: Antibacterial activity against Pseudomonas aeruginosa
Staphylococcus aureus = test: Antibacterial activity against Staphylococcus aureus
Cryptococcus neoformans = test: Antifungal activity against Cryptococcus neoformans
Sporothrix schenckii = test: Antifungal activity against Sporotrichum schenckii
[1] = tested on: Trichophyton mentagrophytes; test: Antifungal activity against Trichophyton mentagrophytes
Aspergillus fumigatus = test: Antifungal activity against Aspergillus fumigatus

Measured: Activity

COc1ccc2cc1Oc1ccc(cc1)C[C@H]1c3cc(OC)c(OC)c(c3CCN1C)Oc1c(OC)c(OC)cc3c1[C@H](C2)N(C)CC3
inactive: Candida albicans | Enterococcus faecalis | Klebsiella pneumoniae | Escherichia coli | Pseudomonas aeruginosa | Staphylococcus aureus | Cryptococcus neoformans | Sporothrix schenckii | [1] | Aspergillus fumigatus

COc1ccc2cc1Oc1ccc(cc1)C[C@H]1c3cc(OC)c(OC)c(c3CCN1C)Oc1c(O)c(OC)cc3c1[C@H](C2)N(C)CC3
inactive: Candida albicans | Enterococcus faecalis | Klebsiella pneumoniae | Escherichia coli | Pseudomonas aeruginosa | Staphylococcus aureus | Cryptococcus neoformans | Sporothrix schenckii | [1] | Aspergillus fumigatus

COc1cc(C[C@H]2c3cc(OC)c(OC)cc3CCN2C)c(Oc2cc3c(cc2OC)-c2c(OC)c(OC)cc4c2[C@H](C3)N(C)CC4)cc1OC
inactive: Candida albicans | Enterococcus faecalis | Klebsiella pneumoniae | Escherichia coli | Pseudomonas aeruginosa | Staphylococcus aureus | Cryptococcus neoformans | Sporothrix schenckii | [1] | Aspergillus fumigatus

COc1ccc2c(c1)-c1c(OC)c(OC)cc3c1[C@H](C2)N(C)CC3
inactive: Candida albicans | Enterococcus faecalis | Klebsiella pneumoniae | Escherichia coli | Pseudomonas aeruginosa | Staphylococcus aureus | Cryptococcus neoformans | Sporothrix schenckii | [1] | Aspergillus fumigatus
